Assay results published in article PMC12472512, “Design, Synthesis, In Silico Docking, Multitarget Bioevaluation and Molecular Dynamic Simulation of Novel Pyrazolo[3,4-d]Pyrimidinone Derivatives as Potential In Vitro and In Vivo Anti-Inflammatory Agents” (Pharmaceuticals, 2025).
Where “and” joins values, the source holds several entries; their conditions need not be identical. Equal entries are not always repeated. Entries after “also recorded” stand apart in the source; their conditions may differ.

Key:
[1] = tested on: COX-2; design: method as in PMID 19479756; conditions: cited from earlier work
[2] = molecular target: T1, COX-1 (Ovis aries, UniProt P05979); assay: In vitro COX-1 inhibition, fluorescent inhibitor screening assay kit
T1 sequence (P05979 25-600): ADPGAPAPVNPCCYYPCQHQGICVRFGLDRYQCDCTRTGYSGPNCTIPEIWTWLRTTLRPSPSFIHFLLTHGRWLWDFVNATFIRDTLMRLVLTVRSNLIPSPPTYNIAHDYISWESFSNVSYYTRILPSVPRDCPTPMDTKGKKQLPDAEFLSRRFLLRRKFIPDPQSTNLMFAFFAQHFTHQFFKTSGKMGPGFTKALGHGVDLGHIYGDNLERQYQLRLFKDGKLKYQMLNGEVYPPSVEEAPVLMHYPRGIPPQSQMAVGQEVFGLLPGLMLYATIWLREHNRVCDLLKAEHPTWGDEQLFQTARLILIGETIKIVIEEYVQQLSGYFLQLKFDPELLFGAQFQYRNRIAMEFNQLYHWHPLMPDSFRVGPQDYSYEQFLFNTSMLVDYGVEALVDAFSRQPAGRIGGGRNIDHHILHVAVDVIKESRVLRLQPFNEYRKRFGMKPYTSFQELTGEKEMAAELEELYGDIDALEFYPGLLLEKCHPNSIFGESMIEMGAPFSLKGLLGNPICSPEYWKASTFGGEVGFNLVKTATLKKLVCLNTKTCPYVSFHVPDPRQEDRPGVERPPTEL

[3] = tested on: carrageenan-induced paw edema; assay: In vivo carrageenan-induced paw edema; conditions: 50 mg/kg oral, mice
[4] = tested on: IL-6; assay: ELISA of serum IL-6 in carrageenan-treated mice; format: in vivo; conditions: 50 mg/kg; carrageenan-treated mice at 3 h
Experimental: Therefore, the anti-inflammatory activity of the tested compounds may hinge on their ability to suppress the pro-inflammatory TNF-α and IL-6 levels.
All mice were sacrificed under anesthesia using ketamine/xylazine (50/15 mg/kg). Blood was collected for the ELISA assays to determine the levels of cytokines TNF-α and IL-6 using the Rat IL6 (Interleukin 6) ELISA Kit and Rat TNFα ELISA Kit (MyBioSource, San Diego, CA, USA), in accordance with the manufacturer’s instructions. The quantitative sandwich enzyme immunoassay technique is the fundamental principle of the TNF-α assay. A microplate was pre-coated with an antibody specific for TNF-α. Standards and samples were pipetted into the wells, and the immobilized antibody bound to any TNF-α that was present. A biotin-conjugated antibody that was specific for TNF-α was introduced to the wells after any unbound substances were removed. Horseradish peroxidase (HRP) conjugated with avidin was introduced to the wells subsequent to the cleaning process. After a wash to eliminate any unbound avidin–enzyme reagent, a substrate solution was introduced to the wells, and the color developed in proportion to the quantity of TNF-α bound in the initial step. The color development was halted, and the color intensity was quantified. Additionally, the Sandwich enzyme immunoassay is the test principle utilized for IL-6. The microtiter plates included in this preparation were pre-coated with an antibody that was specific to Rat IL6. A biotin-conjugated antibody specific to Rat IL6 was then added to the appropriate microtiter plate wells along with standards or samples. Subsequently, each microplate well was incubated with avidin conjugated to horseradish peroxidase (HRP). […] The addition of sulfuric acid solution terminated the enzyme–substrate reaction, and the color change was observed spectrophotometrically at a wavelength of 450 nm ± 10 nm. The concentration of Rat IL6 in the samples was subsequently determined by comparing the OD of the samples to the standard curve. […]

[5] = molecular target: T2, human recombinant COX-2 (Homo sapiens, UniProt P35354); assay: In vitro COX-2 inhibition, fluorescent inhibitor screening assay kit
T2 sequence (P35354 18-604): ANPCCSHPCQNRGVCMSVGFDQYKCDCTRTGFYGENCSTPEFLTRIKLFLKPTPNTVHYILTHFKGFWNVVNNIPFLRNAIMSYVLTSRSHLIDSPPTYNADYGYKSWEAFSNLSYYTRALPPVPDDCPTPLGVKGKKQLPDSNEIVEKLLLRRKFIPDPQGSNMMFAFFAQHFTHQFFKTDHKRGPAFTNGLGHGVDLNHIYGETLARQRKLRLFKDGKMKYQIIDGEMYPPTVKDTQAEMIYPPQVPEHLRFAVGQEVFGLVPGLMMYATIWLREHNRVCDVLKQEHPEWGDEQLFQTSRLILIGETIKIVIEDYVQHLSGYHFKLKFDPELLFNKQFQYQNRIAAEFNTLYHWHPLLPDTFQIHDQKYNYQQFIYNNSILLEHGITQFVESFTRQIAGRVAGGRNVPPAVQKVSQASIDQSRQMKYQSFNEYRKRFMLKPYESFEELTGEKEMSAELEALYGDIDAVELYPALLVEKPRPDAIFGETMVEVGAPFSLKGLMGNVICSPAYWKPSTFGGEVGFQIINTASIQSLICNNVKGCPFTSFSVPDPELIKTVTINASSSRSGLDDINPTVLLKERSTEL

[6] = tested on: gastric mucosa; assay: Histopathological examination of stomach sections (H&E)
[7] = tested on: TNF-α; assay: ELISA of serum TNF-α in carrageenan-treated mice; format: in vivo; conditions: 50 mg/kg; carrageenan-treated mice at 3 h; compared to the control group
Experimental: To evaluate the anti-inflammatory mechanisms of these compounds, two key chemical mediators, TNF-α and IL-6, were assessed using enzyme-linked immunosorbent assay (ELISA).
All mice were sacrificed under anesthesia using ketamine/xylazine (50/15 mg/kg). Blood was collected for the ELISA assays to determine the levels of cytokines TNF-α and IL-6 using the Rat IL6 (Interleukin 6) ELISA Kit and Rat TNFα ELISA Kit (MyBioSource, San Diego, CA, USA), in accordance with the manufacturer’s instructions. The quantitative sandwich enzyme immunoassay technique is the fundamental principle of the TNF-α assay. A microplate was pre-coated with an antibody specific for TNF-α. Standards and samples were pipetted into the wells, and the immobilized antibody bound to any TNF-α that was present. A biotin-conjugated antibody that was specific for TNF-α was introduced to the wells after any unbound substances were removed. Horseradish peroxidase (HRP) conjugated with avidin was introduced to the wells subsequent to the cleaning process. After a wash to eliminate any unbound avidin–enzyme reagent, a substrate solution was introduced to the wells, and the color developed in proportion to the quantity of TNF-α bound in the initial step. The color development was halted, and the color intensity was quantified. Additionally, the Sandwich enzyme immunoassay is the test principle utilized for IL-6. The microtiter plates included in this preparation were pre-coated with an antibody that was specific to Rat IL6. A biotin-conjugated antibody specific to Rat IL6 was then added to the appropriate microtiter plate wells along with standards or samples. Subsequently, each microplate well was incubated with avidin conjugated to horseradish peroxidase (HRP). […] The addition of sulfuric acid solution terminated the enzyme–substrate reaction, and the color change was observed spectrophotometrically at a wavelength of 450 nm ± 10 nm. The concentration of Rat IL6 in the samples was subsequently determined by comparing the OD of the samples to the standard curve.
Blood was collected immediately following the decapitation of mice, performed in accordance with the institutional animal care and use committee (IACUC) guidelines. After decapitation, whole blood was allowed to flow freely and was collected directly into EDTA and heparinized tubes. The whole blood was centrifuged at 3000× g for 10 min at 4 °C, and the plasma was carefully collected and stored at –80 °C until further analysis.

[8] = stomach sections stained with H&E, 50 mg/kg
[9] = stomach sections stained with H&E; 50 mg/kg

SMILES	IC50 [2]	COX1 %inh ([2]; conc 0.01 (uM))	COX1 %inh ([2]; conc 0.1 (uM))	COX1 %inh ([2]; conc 1 (uM))	COX1 %inh ([2]; conc 10 (uM))	COX1 %inh ([2]; conc 100 (uM))	IC50 [5]	SI, in vitro COX-2 selectivity index (COX-1 IC50/COX-2 IC50) [5]	COX2 %inh ([5]; conc 0.01 (uM))	COX2 %inh ([5]; conc 0.1 (uM))	COX2 %inh ([5]; conc 1 (uM))	COX2 %inh ([5]; conc 10 (uM))	COX2 %inh ([5]; conc 100 (uM))	IC50 [1]	Percentage of inhibition of carrageenan-induced paw edema ([3]; 1 h)	Percentage of inhibition of carrageenan-induced paw edema ([3]; 2 h)	IL-6 levels in serum [4]	TNF-α levels in serum [7]	also measured
O=C(Nn1cnc2c(cnn2-c2ccccc2)c1=O)c1ccccc1 [Compound I]	–	–	–	–	–	–	–	–	–	–	–	–	–	78.9 µM	–	–	–	–	–
O=C(NCc1ccccc1)c1nc2c(cnn2-c2ccccc2)c(=O)[nH]1 [II]	–	–	–	–	–	–	–	–	–	–	–	–	–	23.8 µM	–	–	–	–	–
O=C(Cn1cnc2c(cnn2-c2ccccc2)c1=O)N(c1ccccc1)c1ccccc1 [Compound 5k, 2-(4-Oxo-1-Phenyl-1,4-Dihydro-5H-Pyrazolo[3,4-d]Pyrimidin-5-yl)-N, N-Diphenyl Acetamide]	25.5 ± 0.86 µM	0.72%	5.18%	15%	31.4%	74.9%	0.266 ± 0.009 µM	95.8 and 95.75	-394%	-266%	-76%	14.6%	67.8%	–	31.46%	44.88%	significantly reduced	significantly reduced	Percentage of inhibition of carrageenan-induced paw edema ([3]; 3 h, 50 mg/kg): 54.89%; histological structure of the gastric mucosa [6, 8]: preserved gastric tissue integrity; also recorded: intact gastric tissue; also recorded: normal histological structure of the gastric mucosa

Continued, in another order:

IC50 [2]	COX1 %inh ([2]; conc 0.01 (uM))	COX1 %inh ([2]; conc 0.1 (uM))	COX1 %inh ([2]; conc 1 (uM))	COX1 %inh ([2]; conc 10 (uM))	COX1 %inh ([2]; conc 100 (uM))	IC50 [5]	SI, in vitro COX-2 selectivity index (COX-1 IC50/COX-2 IC50) [5]	COX2 %inh ([5]; conc 0.01 (uM))	COX2 %inh ([5]; conc 0.1 (uM))	COX2 %inh ([5]; conc 1 (uM))	COX2 %inh ([5]; conc 10 (uM))	COX2 %inh ([5]; conc 100 (uM))	SMILES	IC50 [1]	Percentage of inhibition of carrageenan-induced paw edema ([3]; 1 h)	Percentage of inhibition of carrageenan-induced paw edema ([3]; 2 h)	IL-6 levels in serum [4]	TNF-α levels in serum [7]	also measured
6.4 ± 0.22 µM	1.32%	7.85%	19.2%	57.9%	80.1%	0.398 ± 0.014 µM	16.09	-425%	-285%	-103%	9.91%	54.8%	O=C(Cn1cnc2c(cnn2-c2ccccc2)c1=O)Nc1ccc2ccccc2c1 [Compound 5j, N-(Naphthalen-2-yl)-2-(4-Oxo-1-Phenyl-1,4-Dihydro-5H-Pyrazolo[3,4-d]Pyrimidin-5-yl) Acetamide]	–	28.35%	50.13%	significantly reduced; also recorded: highest inhibition of IL-6 levels, approaching normal levels	significantly reduced	Percentage of inhibition of carrageenan-induced paw edema ([3]; 3 h, 50 mg/kg): 62.41%; histological structure of the gastric mucosa [6, 8]: preserved gastric tissue integrity; also recorded: intact gastric tissue; also recorded: normal histological structure of the gastric mucosa
14.1 ± 0.47 µM	0.25%	1.77%	8.07%	49.5%	76%	0.49 ± 0.017 µM	28.73	-402%	-301%	-167%	-15%	76.6%	O=C(Cn1cnc2c(cnn2-c2ccccc2)c1=O)Nc1ccc([N+](=O)[O-])cc1 [Compound 5d, N-(4-Nitrophenyl)-2-(4-oxo-1-phenyl-1,4-dihydro-5H-pyrazolo[3,4-d]pyrimidin-5-yl) Acetamide]	–	3.43%	21.26%	–	No significant differences	Percentage of inhibition of carrageenan-induced paw edema ([3]; 3 h): 27.32%; histological structure of the gastric mucosa [6, 9]: normal histological structure of the gastric mucosa
57.3 ± 1.93 µM	0.27%	6.51%	12.3%	24.6%	69.2%	2.34 ± 0.08 µM	24.47	–	-448%	-273%	-103%	46.6%	CC(=NO)c1ccc(NC(=O)Cn2cnc3c(cnn3-c3ccccc3)c2=O)cc1 [Compound 5m, N-(4-(1-(Hydroxyimino)Ethyl)Phenyl)-2-(4-Oxo-1-Phenyl-1,4-Dihydro-5H-Pyrazolo[3,4-d]Pyrimidin-5-yl) Acetamide]	–	3.43%	–	significantly reduced	significantly reduced	Percentage of inhibition of carrageenan-induced paw edema ([3]; 2 h, 50 mg/kg): 58.01%; Percentage of inhibition of carrageenan-induced paw edema ([3]; 3 h): 39.85%; histological structure of the gastric mucosa [6, 9]: normal histological structure of the gastric mucosa
